Paper PMC7023381, “Sulfonamide Inhibition Profile of the β-Carbonic Anhydrase from Malassezia restricta, An Opportunistic Pathogen Triggering Scalp Conditions” (Metabolites, 2020)

What follows are compounds tested against T1, MreCA (Malassezia restricta, UniProt A0A3G2S4B9) (assay: stopped-flow CO2 hydrase assay). Conditions: not given.
T1 construct: gene can; recombinant from synthetic gene in pET100D-Topo, E. coli BL21(DE3) codon plus; N-terminal His6-tag fusion, 27 kDa on SDS-PAGE; no tag cleavage told
T1 sequence (A0A3G2S4B9 1-238): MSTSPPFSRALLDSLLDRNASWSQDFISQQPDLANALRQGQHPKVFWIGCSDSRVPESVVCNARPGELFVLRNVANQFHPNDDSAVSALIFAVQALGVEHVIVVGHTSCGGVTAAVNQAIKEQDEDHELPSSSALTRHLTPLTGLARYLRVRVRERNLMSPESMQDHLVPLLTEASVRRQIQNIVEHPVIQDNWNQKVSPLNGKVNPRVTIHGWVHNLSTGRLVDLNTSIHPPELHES
Type: biochemical

In the case of `NCCc1ccc(S(N)(=O)=O)cc1` [compound 6, 6], the Ki is reported as > 10 µM.

Same assay, conditions: read-out: MreCA

Compared with `CCN1CCCC1CNC(=O)c1cc(S(N)(=O)=O)ccc1OC` (stereo not drawn) [SLP], `NS(=O)(=O)c1ccc(C(=O)O)cc1` [compound 18, 18] is higher in Ki: 4.85 µM for the first, > 10 µM for the second. The first binds more tightly here.

Going from `NS(=O)(=O)c1ccc(S(=O)(=O)Nc2cccc3c(Cl)c[nH]c23)cc1` [IND] to `Nc1ccc(S(=O)(=O)Nc2ccc(S(N)(=O)=O)cc2)cc1` [compound 22, 22], the Ki rises from 0.87 µM to 3.74 µM (4.3-fold). The first binds more tightly here.

Compared with `Cc1ccc(S(N)(=O)=O)cc1` [compound 4, 4], `NS(=O)(=O)c1ccc(O)cc1` [compound 15, 15] is higher in Ki: 4.04 µM for the first, > 10 µM for the second.

Compared with `CC1(C)O[C@@H]2[C@@H](CO[C@@]3(COS(N)(=O)=O)OC(C)(C)O[C@@H]23)O1` [TPM], `CCN[C@H]1CN(CCCOC)S(=O)(=O)c2sc(S(N)(=O)=O)cc21` [BRZ] is 5.5-fold lower in Ki: 3.83 µM for the first, 0.7 µM for the second.

First: Cn1nc(S(N)(=O)=O)sc1=N [compound 14, 14]
Second: CC(=O)N=c1sc(S(N)(=O)=O)nn1C [MZA]
The Ki of the first is higher: > 10 µM for the first, 3.9 µM for the second.

First: NS(=O)(=O)c1cc(Cl)cc(Cl)c1O [compound 10, 10]
Second: NS(=O)(=O)c1cc(Cl)c(Cl)c(S(N)(=O)=O)c1 [DCP]
The Ki of the first is higher: > 10 µM for the first, 3.06 µM for the second. The second binds more tightly here.

First: Nc1nnc(S(N)(=O)=O)s1 [compound 13, 13]
Second: Nc1ccc(S(=O)(=O)Nc2nnc(S(N)(=O)=O)s2)cc1 [compound 20, 20]
The Ki of the first is higher: > 10 µM for the first, 0.91 µM for the second.

First: Nc1nccc(Nc2ccc(S(N)(=O)=O)cc2)n1 [compound 19, 19]
Second: Nc1ccc(S(N)(=O)=O)cc1 [compound 2, 2]
The Ki of the first is 1.7-fold higher: 7.79 µM for the first, 4.62 µM for the second.

Going from `NS(=O)(=O)c1ccc(N2CCCCS2(=O)=O)cc1` [SLT] to `NCc1ccc(S(N)(=O)=O)cc1` [compound 5, 5], the Ki rises from 0.67 µM to > 10 µM.

Going from `Cc1ccc(-c2cc(C(F)(F)F)nn2-c2ccc(S(N)(=O)=O)cc2)cc1` [CLX] to `Cc1onc(-c2ccccc2)c1-c1ccc(S(N)(=O)=O)cc1` [VLX], the Ki falls from 1.4 µM to 0.77 µM (1.8-fold).

`NS(=O)(=O)c1cccc(S(N)(=O)=O)c1` [compound 3, 3] and `Nc1ccc(S(N)(=O)=O)cc1Br` [compound 9, 9] cannot be ordered by Ki: > 10 µM for the first, > 10 µM for the second.

Going from `O=C1NS(=O)(=O)c2ccccc21` [SAC] to `NS(=O)(=O)Cc1noc2ccccc12` [ZNS], the Ki rises from 6.2 µM to > 10 µM.

First: NS(=O)(=O)c1cc2c(cc1Cl)NCNS2(=O)=O [HCT]
Second: Nc1cc(Cl)c(S(N)(=O)=O)cc1S(N)(=O)=O [compound 12, 12]
The Ki of the first is lower: 8.5 µM for the first, > 10 µM for the second. The first binds more tightly here.

Going from `Nc1ccc(S(N)(=O)=O)cc1F` [compound 7, 7] to `Nc1ccc(S(N)(=O)=O)cc1Cl` [compound 8, 8], the Ki rises from 4.59 µM to > 10 µM.

`Nc1ccc(S(=O)(=O)NCc2ccc(S(N)(=O)=O)cc2)cc1` [compound 23, 23] and `Nc1ccc(S(=O)(=O)NCCc2ccc(S(N)(=O)=O)cc2)cc1` [compound 24, 24] cannot be ordered by Ki: > 10 µM for the first, > 10 µM for the second.

`NS(=O)(=O)c1nnc(NS(=O)(=O)c2ccccc2)s1` [BZA] and `NS(=O)(=O)c1ccc(CO)cc1` [compound 16, 16] are within 1.5-fold of each other in Ki: 7.15 µM for the first, 6.51 µM for the second.

`NC(N)=Nc1nc(CSCCC(N)=NS(N)(=O)=O)cs1` [FAM] and `NS(=O)(=O)c1ccc(CCO)cc1` [compound 17, 17] cannot be ordered by Ki: > 10 µM for the first, > 10 µM for the second.

Work on `Nc1cc(C(F)(F)F)c(S(N)(=O)=O)cc1S(N)(=O)=O` [compound 11, 11] yielded a Ki of 6.76 µM.
